{"source": "paper PMC7288112", "about": "(Molecules, 2020)", "molecular_target": "Rv1466 (Mycobacterium tuberculosis, UniProt O53157)", "sequence (O53157 entry or part of it)": "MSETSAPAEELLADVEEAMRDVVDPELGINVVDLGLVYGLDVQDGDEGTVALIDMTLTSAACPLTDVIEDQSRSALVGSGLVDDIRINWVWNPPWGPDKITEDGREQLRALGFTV", "assay": "biochemical", "assay_type": "binding"}
{"smiles": "O=C1C=C[C@@H]2O[C@H](c3ccccc3)[C@@H](O)[C@@H]2O1", "note": "[altholactone]", "values": [{"measurement": "Kd", "value": "42 ± 6.1", "unit": "µM"}]}
